Data published in BindingDB's records for doi:10.3109/14756366.2013.813942 (Istituto di Biostrutture e Bioimmagini-CNR, 2014).
Where a name gives a salt, the structure may show the parent alone.

molecular target: T1, Carbonic anhydrase [110-330] (Coastal plain yellowtops, UniProt P46510); assay: Stopped Flow CO2 Hydration Assay; conditions: pH 8.3; 20 °C
T1 construct: 110-330
T1 sequence (P46510 whole entry): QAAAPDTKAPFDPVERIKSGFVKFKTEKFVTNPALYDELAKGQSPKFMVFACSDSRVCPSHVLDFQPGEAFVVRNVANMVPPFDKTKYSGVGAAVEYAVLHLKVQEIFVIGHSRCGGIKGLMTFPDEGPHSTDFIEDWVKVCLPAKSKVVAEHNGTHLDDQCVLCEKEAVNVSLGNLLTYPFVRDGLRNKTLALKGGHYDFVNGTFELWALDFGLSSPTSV
Experimental: Inhibition constants of carboxylate inhibitors against F. bidentis CA I were determined by a stopped flow CO2 hydration assay at 20 °C.

Ki [µM] | Structure (SMILES)
93 | O=C(O)C(=O)O
91 | CCC(=O)O
77.5 | CCCCC(=O)O
> 10000 | CC(=O)C(=O)O [Pyruvate]
73.2 | O=C(O)/C=C\C(=O)O [sodium maleate]
51.2 | O=C(O)c1c(F)c(F)cc(F)c1F [2,3,5,6-F4-Benzoate]
92.5 | O=C(O)CC(O)C(=O)O (centres undefined)
74.1 | CC(O)C(=O)O (centres undefined)
100 | O=C(O)CC(=O)O [sodium malonate]

Structure (SMILES) | Ki [µM]
O=C(O)CC(O)(CC(=O)O)C(=O)O [SODIUM CITRATE] | 41.4
CC(=O)O [sodium acetate] | 95.1
CCCC(=O)O | 82.3
O=C(O)c1ccccc1 [SODIUM BENZOATE] | 64.5
O=CO | 97.5
